# Reference: ChEMBL document CHEMBL1201862, “PubChem BioAssay data set” (2004)
#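 Compound exposure: 48 hours, 5 concentrations, 96-well plates. The concentration for 50% growth inhibition is given as GI50.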 The source made the active and inactive calls. No stated cut-off is given here; in the data, active = GI50 up to about 1.1 µM and inactive = higher.
# Tests used:
# Test in all cases: growth of human tumour cells (NCI), 48 h
# A498 = tested on: A498
# BT-549 = tested on: BT-549
# HCC 2998 = tested on: HCC 2998
# HCT-116 = tested on: HCT-116
# HCT-15 = tested on: HCT-15
# LOX IMVI = tested on: LOX IMVI
# M14 = tested on: M14
# MDA-MB-231 = tested on: MDA-MB-231
# MOLT-4 = tested on: MOLT-4
# NCI-H23 = tested on: NCI-H23
# OVCAR-5 = tested on: OVCAR-5
# PC-3 = tested on: PC-3
# RPMI-8226 = tested on: RPMI-8226
# SF-268 = tested on: SF-268
# SF-295 = tested on: SF-295
# SK-MEL-2 = tested on: SK-MEL-2
# SW-620 = tested on: SW-620
# TK-10 = tested on: TK-10
# UACC-257 = tested on: UACC-257
# SR = tested on: SR
SMILES,GI50 (A498),GI50 (BT-549),GI50 (HCC 2998),GI50 (HCT-116),GI50 (HCT-15),GI50 (LOX IMVI),GI50 (M14),GI50 (MDA-MB-231),GI50 (MOLT-4),GI50 (NCI-H23),GI50 (OVCAR-5),GI50 (PC-3),GI50 (RPMI-8226),GI50 (SF-268),GI50 (SF-295),GI50 (SK-MEL-2),GI50 (SW-620),GI50 (TK-10),GI50 (UACC-257),GI50 (SR)
Cc1cc(O)cc(O)c1/N=N/c1ccc([N+](=O)[O-])cc1,18.4 µM (inactive),15 µM (inactive),10.4 µM (inactive),3.51 µM (inactive),6.87 µM,23.7 µM (inactive),22.5 µM (inactive),14.8 µM (inactive),5.3 µM (inactive),17.7 µM (inactive),27.7 µM (inactive),16 µM (inactive),5.22 µM (inactive),9.86 µM (inactive),> 100 µM (inactive),15.4 µM (inactive),5.96 µM (inactive),23.9 µM (inactive),25.1 µM (inactive),
Cc1nc(C)c(C(=O)NNC(=O)c2ccccc2)cc1C(=O)NNC(=O)c1ccccc1,> 100 µM (inactive),> 100 µM (inactive),> 100 µM (inactive),> 100 µM (inactive),> 100 µM,> 100 µM (inactive),> 100 µM (inactive),> 100 µM (inactive),> 100 µM (inactive),> 100 µM (inactive),> 100 µM (inactive),> 100 µM (inactive),> 100 µM (inactive),> 100 µM (inactive),> 100 µM (inactive),> 100 µM (inactive),> 100 µM (inactive),> 100 µM (inactive),> 100 µM (inactive),
Nc1ccc(Cn2ccc3c4c(N)nc(N)nc4ccc32)cc1,,0.219 µM (active),< 0.0268 µM (active),< 0.01 µM (active),< 0.01 µM,< 0.01 µM (active),< 0.0114 µM (active),1.06 µM (active),< 0.0122 µM (active),< 0.01 µM (active),0.0224 µM (active),0.0127 µM (active),0.165 µM (active),< 0.0156 µM (active),< 0.01 µM (active),1.17 µM (inactive),< 0.01 µM (active),1.58 µM (inactive),,0.0393 µM (active)
CCC(C)[C@@H](NC1=C(Cl)C(=O)c2c(O)ccc(O)c2C1=O)C(=O)OC (some centres undefined),,3.43 µM (inactive),> 10 µM (inactive),2.4 µM (inactive),2.94 µM,3.21 µM (inactive),2.31 µM (inactive),2.52 µM (inactive),1.47 µM (inactive),2.07 µM (inactive),5.12 µM (inactive),3.86 µM (inactive),2.28 µM (inactive),3.7 µM (inactive),4.92 µM (inactive),4.2 µM (inactive),4.46 µM (inactive),> 10 µM (inactive),2.18 µM (inactive),1.06 µM (active)
CCCC1CCC(=C2C(=O)CCC2=O)O1 (centres undefined),,> 100 µM (inactive),> 100 µM (inactive),> 100 µM (inactive),> 100 µM,> 100 µM (inactive),> 100 µM (inactive),> 100 µM (inactive),0.849 µM (active),> 100 µM (inactive),> 100 µM (inactive),> 100 µM (inactive),> 100 µM (inactive),> 100 µM (inactive),> 100 µM (inactive),> 100 µM (inactive),> 100 µM (inactive),> 100 µM (inactive),> 100 µM (inactive),> 100 µM (inactive)
